Results published in publication PMC7570966 (Molecules, 2020).
Read-outs that look alike come from different tables or passages of the source.

Experiments:
[1] = molecular target: T1, acetylcholinesterase (AChE) (Electrophorus electricus, UniProt O42275); test: biochemical; conditions: Ellman's method, pH 8, triplicate
T1 construct: purchased Sigma–Aldrich (St. Louis, MO, USA)
Experimental: AChE inhibitory activities of the synthesized flavone derivatives were determined by Ellman’s method [45]. […] The assay was performed as described earlier [46] in 96-well microtiter plates using the EMR-500 ELISA system (Labomed, Los Angeles, CA, USA). Each well of the plate contained a mixture of sodium phosphate buffer pH 8, sample (studied compounds or reference), acetylcholinesterase, ATCI, and 5,5′-dithio-bisnitrobenzoic acid (DTNB). The absorbance was recorded at 405 nm. All samples were assayed in triplicate.

β-secretase (BACE-1) = molecular target: T2, β-secretase (BACE-1) (Homo sapiens, UniProt P56817); test: biochemical
T2 construct: purchased Sigma–Aldrich
T2 sequence (P56817 46-501): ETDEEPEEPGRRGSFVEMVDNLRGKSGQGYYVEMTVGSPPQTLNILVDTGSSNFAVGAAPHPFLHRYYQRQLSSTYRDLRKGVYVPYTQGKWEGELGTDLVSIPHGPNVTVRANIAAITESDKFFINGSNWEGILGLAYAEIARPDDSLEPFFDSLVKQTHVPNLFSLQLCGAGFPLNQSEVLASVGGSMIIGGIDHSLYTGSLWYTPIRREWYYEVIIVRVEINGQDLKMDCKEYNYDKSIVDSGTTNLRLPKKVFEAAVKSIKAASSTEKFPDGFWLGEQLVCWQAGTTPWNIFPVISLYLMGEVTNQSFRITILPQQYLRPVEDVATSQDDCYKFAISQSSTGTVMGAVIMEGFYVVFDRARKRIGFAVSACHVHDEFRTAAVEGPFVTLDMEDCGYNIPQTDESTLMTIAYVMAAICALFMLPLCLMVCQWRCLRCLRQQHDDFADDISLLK
Text: A fluorescence β-Secretase (BACE-1) Activity Detection Kit was purchased from Sigma–Aldrich and used to determine the effect of the synthesized flavone derivatives on β-secretase activity. […] The enzyme solution was reacted with the substrate (7-methoxycumarin-4-acetyl-(Asn670, Lue671)-amyloid β/A4 precursor protein 770 fragment 667–676-(2,4-dinitrophenyl))Lys-Arg-Arg amide trifluoroacetate salt and sulfated polysaccharide samples in a fluorescence assay buffer in different wells. Baseline readings were measure immediately on an F-7000 fluorescence spectrophotometer (Hitachi, Tokyo, Japan; excitation: 320 nm; emission: 405 nm) and repeated after 2 h incubation at 37 °C.

[2] = fluorescence kit, 2 h incubation at 37 °C, read-out: BACE-1 IC50
[3] = observed, -logIC50, read-out: BACE-1 Obs. pIC50 (converted)

T1 sequence (O42275 24-633): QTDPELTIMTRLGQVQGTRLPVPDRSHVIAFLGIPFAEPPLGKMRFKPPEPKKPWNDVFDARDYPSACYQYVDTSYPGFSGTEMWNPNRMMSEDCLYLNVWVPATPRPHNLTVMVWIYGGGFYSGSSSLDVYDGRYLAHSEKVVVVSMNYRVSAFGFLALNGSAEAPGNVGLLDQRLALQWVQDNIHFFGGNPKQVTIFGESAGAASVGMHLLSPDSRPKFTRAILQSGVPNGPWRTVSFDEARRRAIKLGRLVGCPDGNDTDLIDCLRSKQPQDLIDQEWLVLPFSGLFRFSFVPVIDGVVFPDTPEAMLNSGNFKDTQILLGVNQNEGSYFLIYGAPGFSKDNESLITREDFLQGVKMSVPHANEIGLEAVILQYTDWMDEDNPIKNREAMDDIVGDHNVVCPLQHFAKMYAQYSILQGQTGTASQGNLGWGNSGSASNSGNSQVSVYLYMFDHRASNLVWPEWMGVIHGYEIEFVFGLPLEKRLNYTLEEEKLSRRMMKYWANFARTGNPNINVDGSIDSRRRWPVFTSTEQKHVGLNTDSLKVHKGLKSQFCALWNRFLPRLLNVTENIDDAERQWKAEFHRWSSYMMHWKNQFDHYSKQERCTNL

SMILES | IC50 [1] [µM] | IC50 (β-secretase (BACE-1); [2]) [µM] | IC50 (β-secretase (BACE-1); [3]) [µM] | IC50 (β-secretase (BACE-1); BACE-1 IC50, fluorescence kit, 2 h incubation at 37 °C) [µM] | IC50 (β-secretase (BACE-1); BACE-1 Obs. pIC50, observed, -logIC50) [µM]
O=c1cc(-c2ccccc2)oc2cc(O)c(O)c(O)c12 [Compound B1, Baicalein] | 37.1 | – | – | – | –
COc1cc2oc(-c3ccccc3)cc(=O)c2c(O)c1OC [Compound B2, 5-Hydroxy-6,7-dimethoxyflavone] | 25.5 | 43.6 | 43.7 | – | –
CCOc1cc2oc(-c3ccccc3)cc(=O)c2c(O)c1OCC [Compound B3, 6,7-Diethoxy-5-hydroxyflavone] | 30 | 3.98 | 3.98 | – | –
C=CCOc1cc2oc(-c3ccccc3)cc(=O)c2c(O)c1OCC=C [Compound B4, 6,7-Diallyloxy-5-hydroxyflavone] | 51.8 | 70.8 | 70.8 | – | –
C=CCOc1cc2oc(-c3ccccc3)cc(=O)c2c(OCC=C)c1OCC=C [Compound B5, 5,6,7-Triallyloxyflavone] | 191 | 17 | 17 | – | –
O=c1cc(-c2ccccc2)oc2cc(OCc3ccccc3)c(OCc3ccccc3)c(OCc3ccccc3)c12 [Compound B6, 5,6,7-Tribenzyloxyflavone] | 80.3 | 12.6 | 12.6 | – | –
CC(=O)Oc1cc2oc(-c3ccccc3)cc(=O)c2c(OC(C)=O)c1OC(C)=O [Compound B7, 5,6,7-Triacetoxyflavone] | 51.3 | 31.6 | 31.6 | – | –
CCC(=O)Oc1cc2oc(-c3ccccc3)cc(=O)c2c(OC(=O)CC)c1OC(=O)CC [Compound B8, 5,6,7-Tripropionoxyflavone] | 66.2 | 22.4 | 22.4 | – | –
COc1cc(O)c2c(=O)cc(-c3ccc(OC)c(OC)c3)oc2c1 [Compound D2, 5-Hydroxy-3’,4’,7-trimethoxyflavone] | 87.1 | 2.14 | 2.14 | – | –
CCOc1cc(O)c2c(=O)cc(-c3ccc(OC)c(OCC)c3)oc2c1 [Compound D3, 3’,7-Diethoxy-5-hydroxy-4’-methoxyflavone] | 129 | 3.16 | 3.16 | – | –
C=CCOc1cc(O)c2c(=O)cc(-c3ccc(OC)c(OCC=C)c3)oc2c1 [Compound D4, 3’,7-Diallyloxy-5-hydroxy-4’-methoxyflavone] | 151 | 3.6 | 3.63 | – | –
COc1cc(OC)c2c(=O)cc(-c3ccc(OC)c(OC)c3)oc2c1 [Compound D5, 3’,4’,5,7-Tetramethoxyflavone] | 73.8 | – | – | 1.66 | 1.66
CCOc1cc(OCC)c2c(=O)cc(-c3ccc(OC)c(OCC)c3)oc2c1 [Compound D6, 3′,5,7-Triethoxy-4′-methoxyflavone] | 75.9 | 1.58 | 1.58 | – | –
COc1ccc(-c2cc(=O)c3c(O)cc(OC(=O)c4ccccc4)cc3o2)cc1OC(=O)c1ccccc1 [Compound D7, 3’,7-Dibenzoyloxy-5-hydroxy-4’-methoxyflavone] | 340 | 2.86 | 2.88 | – | –
